The results in this text go back to patent publication US8821875B2, “Pharmaceutical composition comprising antibodies against catalase and superoxide dismutase for tumor therapy” (Universitaetsklinikum Freiburg, priority 2011, dated 2014).

The test system of assay [1] is MKN-45 cells. Kind of assay: Inhibitor analysis of antibody-induced apoptosis in MKN-45 cells (ROS signaling). The conditions noted are these: for effect of inhibitor on apoptosis induced by monoclonal antibody against catalase: MKN-45, 2 hours, FIG. 8; for effect of inhibitor on anti-SOD-induced apoptosis: MKN-45, 6 hours, inhibitor concentrations of b79. The assay is classed as cell-based, human. How it is done:
To 12 500 MKN-45 cells in […] RPMI 1640 medium, 10% FBS the given concentrations of the monoclonal antibodies against catalase as well as the mentioned inhibitors were added and the incubation was continued for 2 hours at 37° C., 5% CO2, before in duplicates the percentages of apoptotic cells were determined.
To 12 500 MKN-45 cells in […] RPMI 1640 medium, 10% FBS the given concentrations of the monoclonal antibodies against catalase and the given concentrations of the salen-manganese complex EUK-134 (chloro[[2,2′-[1,2-ethanediylbis[(nitrilo-κN)methylidyne]]bis[6-methoxyphenolato-κO]]]-manganese) (a catalase mimetic) were added and the incubation was continued for 2.5 hours at 37° C., 5% CO2. Subsequently, the percentage of apoptotic cells (duplicates) was determined according to the conventional apoptosis criteria membrane blebbing, nuclear condensation and/or nuclear fragmentation.
To 12 500 MKN-45 cells in […] RPMI 1640 medium, 10% FBS the given concentrations of monoclonal antibodies against SOD and the given inhibitors were added and the incubation was continued for 6 hours at 37° C., 5% CO2. Subsequently, the percentage of apoptotic cells (duplicates) was determined according to the conventional apoptosis criteria membrane blebbing, nuclear condensation, and/or nuclear fragmentation.
Inhibitors: […] FeTPPS (peroxynitrite decomposition catalyst); 75 U/ml MnSOD; 50 mM taurine (HOCl scavenger); 2.4 mM L-NAME (NOS inhibitor).

Assay [2] relates to MKN-45 cells. Kind of assay: Synergistic effect of anti-catalase and anti-SOD in induction of apoptosis in MKN-45 cells. It counts as cell-based, human. The conditions noted are these: 2 mM histidine, MKN-45, 3 hours, FIG. 18. How it is done:
12 500 MKN-45 cells in […] RPMI 1640 medium, 10% FBS received the given concentrations of anti-catalase. Control batches remained free of additional batches, batches for determination of the interaction additionally received 0.5 ng/ml or 2 ng/ml anti-SOD. The percentages of apoptotic cells were determined after 5.5 hours in duplicates.
This is unexpected and of great interest, since on its basis a considerable saving of antibodies could be achieved with the same effect. So, for example the combination of 2 ng/ml anti-SOD with 2 ng/ml anti-catalase results in 80 percent of the effect that can be achieved with 125 ng/ml of anti-catalase antibodies alone. 12 500 MKN-45 cells in […] RPMI 1640 medium, 10% FBS received the given concentrations of anti-catalase (control), anti-catalase plus 2 mM histidine (singlet oxygen scavenger), anti-catalase plus 1 ng/ml anti-SOD, anti-catalase/1 ng/ml anti-SOD/2 mM histidine. The percentages of apoptotic cells are determined after 3 hours in duplicates.
12 500 MKN-45 cells in […] RPMI 1640 medium, 10% FBS received the given concentrations of the Fab fragment AbD15562 directed against catalase. […] The percentages of apoptotic cells were determined after 3 hours in duplicates.

The test system of assay [3] is human Ewing's sarcoma line SKN-MC. As to the kind of experiment: Induction of apoptosis in Ewing's sarcoma line SKN-MC and inhibitor analysis. The assay is classed as cell-based. The following applies: 3 hours, inhibitor concentrations; for effect of inhibitor on anti-catalase-induced apoptosis: FIG. 13A; for effect of inhibitor on anti-SOD-induced apoptosis: FIG. 13B. How it is done:
To 12 500 cells of the human neuroblastoma line SHEP and the human Ewing's sarcoma line SKN-MC in […] EMEM plus 5% FBS the given concentrations of anti-catalase and anti-SOD, respectively, were added. The percentages of apoptotic cells were determined after 5 hours (SHEP) and 5.5 hours (SKNMC), respectively.
To 10 000 cells of the human Ewing's sarcoma line SKN-MC in […] EMEM plus 5% FBS the given inhibitors and the concentrations of anti-catalase and anti-SOD, respectively, plotted in the abscissa were added. The percentages of apoptotic cells were determined after 3 hours.
Inhibitors: 50 mM taurine (HOCl scavenger); […] (peroxynitrite decomposition catalyst); 1000 U/ml catalase from ox liver; 40 mM MnTE2PyP(SOD mimetic); 90 U/ml MnSOD; 20 mM 3-Br-7-nitroindazole (nNOS specific inhibitor).

Regarding `NCCc1ccc(S(=O)(=O)F)cc1` [AEBSF, 4-(2-aminoethyl)-benzenesulfonyl fluoride], the “effect of inhibitor on apoptosis induced by monoclonal antibody against catalase” value (“effect of inhibitor on apoptosis induced” for short) in the assay with MKN-45 cells [1] (inhibitor concentrations) is “inhibited”.

Regarding `N[C@@H](Cc1c[nH]cn1)C(=O)O` [histidine], in the assay with MKN-45 cells [2], the “blocking of the supra-optimum drop of the concentration-dependent curves” value is given as “can be blocked”; the “blocking of the synergistic effect between anti-SOD and anti-catalase” value is recorded as “cannot be blocked”.

For the molecule `COC(=O)[C@@H](N)CCCNC(=N)N[N+](=O)[O-].Cl` [L-NAME, N-ω-nitro-L-arginine methylester hydrochloride], the “effect of inhibitor on apoptosis induced” value in the assay on MKN-45 cells [1] (inhibitor concentrations) is recorded as “inhibited in the lower concentration range of the antibody”. For the same molecule, the “effect of inhibitor on anti-SOD-induced apoptosis” value in the assay on MKN-45 cells [1] (FIG. 10) is “inhibition”.

Take `CC[n+]1ccccc1-c1c2nc(c(-c3cccc[n+]3CC)c3ccc([n-]3)c(-c3cccc[n+]3CC)c3nc(c(-c4cccc[n+]4CC)c4ccc1[n-]4)C=C3)C=C2.[Cl-].[Cl-].[Cl-].[Cl-].[Cl-].[Mn+3]` [MnTE2PyP, Mn(III) meso-tetrakis(N-ethyl-2-pyridyl)porphyrin pentachloride]: in assay [3], the “effect of inhibitor on anti-catalase-induced apoptosis” value is “inhibition” and the “effect of inhibitor on anti-SOD-induced apoptosis” value is on record as “inhibition”.

As for `NCCS(=O)(=O)O` [taurine], in assay [3], the “effect of inhibitor on anti-catalase-induced apoptosis” value is “lacking inhibitory effect” and the “effect of inhibitor on anti-SOD-induced apoptosis” value was “lacking inhibitory effect”. Further, the “effect on the NO/peroxynitrite pathway in anti-SOD-induced apoptosis” value with MKN-45 cells [1] (MKN-45, 50 mM taurine, FIG. 10) is given as “enhancing effect”. Further, the “effect of inhibitor on apoptosis induced” value with MKN-45 cells [1] (higher antibody concentration (HOCl pathway)) is recorded as “inhibitory effect”. In addition, in the assay with MKN-45 cells [1] (FIG. 10), the “effect of inhibitor on anti-SOD-induced apoptosis” value was “lacking inhabitability”.

Regarding `Cl.O=S(=O)([O-])c1ccc(-c2c3nc(c(-c4ccc(S(=O)(=O)O)cc4)c4ccc([nH]4)c(-c4ccc(S(=O)(=O)O)cc4)c4nc(c(-c5ccc(S(=O)(=O)O)cc5)c5ccc2[nH]5)C=C4)C=C3)cc1.[Fe]` [FeTPPS, 5-, 10-, 15-, 20-tetrakis(4-sulfonatophenyl)porphyrinato iron(III) chloride], the “effect of inhibitor on anti-catalase-induced apoptosis” value in assay [3] is on record as “inhibition”. Moreover, the “effect of inhibitor on anti-SOD-induced apoptosis” value (in assay [3]; in the assay on MKN-45 cells [1] (FIG. 10)) was “inhibition” in each case. In the assay on MKN-45 cells [1] (inhibitor concentrations), the “effect of inhibitor on apoptosis induced” value is given as “inhibited in the lower concentration range of the antibody”.

For `O=[N+]([O-])c1cccc2c(Br)n[nH]c12` [3-Br-7-nitro-indazole, 3-bromo-7-nitroindazole], in assay [3], the “effect of inhibitor on anti-catalase-induced apoptosis” value is “inhibition” and the “effect of inhibitor on anti-SOD-induced apoptosis” value is reported as “inhibition”.

As for `COc1cccc(C=NCCN=Cc2cccc(OC)c2[O-])c1[O-].[Cl-].[Mn+3]` [EUK-134], the “effect on anti-catalase-induced apoptosis” value in the assay with MKN-45 cells [1] (0.25 μM EUK-134, middle concentration range of the antibody, FIG. 9) is “stronger inhibition”; in the assay on MKN-45 cells [1] (0.25 mM EUK-134, lower concentration range of the antibodies, FIG. 9) it was “significant increase in apoptosis”; in the assay with MKN-45 cells [1] (two next higher concentrations of EUK-134, middle concentration range of the antibody, FIG. 9), “complete inhibition of the HOCl pathway”. In addition, the “effect on concentration curve of anti-catalase-induced apoptosis” value in the assay on MKN-45 cells [1] (0.06 and 0.125 mM EUK-134, MKN-45, 2.5 hours, FIG. 9) is on record as “change the optimum curve into a plateau curve”.

B1: exogenous catalase: 1000 U/ml catalase from ox liver, added exogenously (protein, UniProt P00432 2-527, looked up)
Catalase: ADNRDPASDQMKHWKEQRAAQKPDVLTTGGGNPVGDKLNSLTVGPRGPLLVQDVVFTDEMAHFDRERIPERVVHAKGAGAFGYFEVTHDITRYSKAKVFEHIGKRTPIAVRFSTVAGESGSADTVRDPRGFAVKFYTEDGNWDLVGNNTPIFFIRDALLFPSFIHSQKRNPQTHLKDPDMVWDFWSLRPESLHQVSFLFSDRGIPDGHRHMNGYGSHTFKLVNANGEAVYCKFHYKTDQGIKNLSVEDAARLAHEDPDYGLRDLFNAIATGNYPSWTLYIQVMTFSEAEIFPFNPFDLTKVWPHGDYPLIPVGKLVLNRNPVNYFAEVEQLAFDPSNMPPGIEPSPDKMLQGRLFAYPDTHRHRLGPNYLQIPVNCPYRARVANYQRDGPMCMMDNQGGAPNYYPNSFSAPEHQPSALEHRTHFSGDVQRFNSANDDNVTQVRTFYLKVLNEEQRKRLCENIAGHLKDAQLFIQKKAVKNFSDVHPEYGSRIQALLDKYNEEKPKNAVHTYVQHGSHLSAREKANL
Take B1: in assay [3], the “effect of inhibitor on anti-catalase-induced apoptosis” value was “compensated” and the “effect of inhibitor on anti-SOD-induced apoptosis” value was “compensated”.
